Experimental data from publication PMC5297726, “Anti-Neuroblastoma Properties of a Recombinant Sunflower Lectin” (International Journal of Molecular Sciences, 2017).

Target: T1, Trx-rHelja (Helianthus annuus, UniProt A0A059VAE5)
T1 construct: N-terminal thioredoxin, His6 and enterokinase-site tags kept; E. coli Rosetta-gami2 (DE3) pLysS; about 35 kDa fusion (Helja about 20 kDa)
Assay: affinity chromatography on D-mannose-agarose, elution with mannose, SDS-PAGE
Assay type: binding
Settings: 50 mM Tris-HCl pH 7.5, 100 mM NaCl; D-mannose immobilised on agarose; eluted with 200 mM free mannose

T1 sequence (A0A059VAE5 entry or part of it): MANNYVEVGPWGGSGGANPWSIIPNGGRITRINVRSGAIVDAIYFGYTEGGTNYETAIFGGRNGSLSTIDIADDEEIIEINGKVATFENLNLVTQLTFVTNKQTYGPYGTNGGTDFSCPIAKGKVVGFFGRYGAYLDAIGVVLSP

SMILES: OC[C@H]1OC(O)[C@@H](O)[C@@H](O)[C@@H]1O (stereo partly shown) [mannose]
- affinity chromatography on D-mannose-agarose, elution with mannose, SDS-PAGE: the recombinant protein was bounded to the matrix and eluted with mannose
